The values that follow come from patent US11267825B2 (AICURIS GMBH & CO. KG, priority 2017, dated 2022).

Like-named read-outs stand apart in the source and are kept apart here.

For one assay, the target named is HBV core protein (UniProt P03146). Format: biochemical. The following applies: read-out: Assembly Activity (IC50); BODIPY-FL labelled core protein, assembly started with NaCl, read after 6 min. The protocol:
Biochemical Capsid Assembly Assay
The screening for assembly effector activity was done based on a fluorescence quenching assay published by Zlotnick et al. (2007). The C-terminal truncated core protein containing 149 amino acids of the N-terminal assembly domain was fused to a unique cysteine residue at position 150 and was expressed in E. coli using the pET expression system (Merck Chemicals, Darmstadt). Purification of core dimer protein was performed using a sequence of size exclusion chromatography steps. In brief, the cell pellet from 1 L BL21 (DE3) Rosetta2 culture expressing the coding sequence of core protein cloned NdeI/XhoI into expression plasmid pET21b was treated for 1 h on ice with a native lysis buffer (Qproteome Bacterial Protein Prep Kit; Qiagen, Hilden). After a centrifugation step the supernatant was precipitated during 2 h stirring on ice with 0.23 g/ml of solid ammonium sulfate. Following further centrifugation the resulting pellet was resolved in buffer A (100 mM Tris, pH 7.5; 100 mM NaCl; 2 mM DTT) and was subsequently loaded onto a buffer A equilibrated CaptoCore 700 column (GE HealthCare, Frankfurt). The column flow through containing the assembled HBV capsid was dialyzed against buffer N (50 mM NaHCO3 pH 9.6; 5 mM DTT) before urea was added to a final concentration of 3M to dissociate the capsid into core dimers for 1.5 h on ice. The protein solution was then loaded onto a 1 L Sephacryl S300 column. After elution with buffer N core dimer containing fractions were identified by SDS-PAGE and subsequently pooled and dialyzed against 50 mM HEPES pH 7.5; 5 mM DTT. To improve the assembly capacity of the purified core dimers a second round of assembly and disassembly starting with the addition of 5 M NaCl and including the size exclusion chromatography steps described above was performed. From the last chromatography step core dimer containing fractions were pooled and stored in aliquots at concentrations between 1.5 to 2.0 mg/ml at −80° C.
Immediately before labelling the core protein was reduced by adding freshly prepared DTT in a final concentration of 20 mM. After 40 min incubation on ice storage buffer and DTT was removed using a Sephadex G-25 column (GE HealthCare, Frankfurt) and 50 mM HEPES, pH 7.5. For labelling 1.6 mg/ml core protein was incubated at 4° C. and darkness overnight with BODIPY-FL maleimide (Invitrogen, Karlsruhe) in a final concentration of 1 mM. After labelling the free dye was removed by an additional desalting step using a Sephadex G-25 column. Labelled core dimers were stored in aliquots at 4° C. In the dimeric state the fluorescence signal of the labelled core protein is high and is quenched during the assembly of the core dimers to high molecular capsid structures. The screening assay was performed in black 384 well microtiter plates in a total assay volume of 10 μl using 50 mM HEPES pH 7.5 and 1.0 to 2.0 μM labelled core protein. Each screening compound was added in 8 different concentrations using a 0.5 log-unit serial dilution starting at a final concentration of 100 μM, 31.6 μM or 10 μM. In any case the DMSO concentration over the entire microtiter plate was 0.5%. The assembly reaction was started by the injection of NaCl to a final concentration of […] which induces the assembly process to approximately 25% of the maximal quenched signal. 6 min after starting the reaction the fluorescence signal was measured using a Clariostar plate reader (BMG Labtech, Ortenberg) with an excitation of 477 nm and an emission of 525 nm. As 100% and 0% assembly control HEPES buffer containing 2.5 M and 0 M NaCl was used. Experiments were performed thrice in triplicates. EC50 values were calculated by non-linear regression analysis using the Graph Pad Prism 6 software (GraphPad Software, La Jolla, USA).

In another assay the test system is HBV. The assay can be described thus: Determination of HBV DNA from the supernatants of HepAD38 cells (anti-HBV activity). The class given is cell-based, hepatitis B virus. The following applies: Hepatitis B virus, read-out: Cell Activity (EC50). As for the experimental part:
Determination of HBV DNA from the Supernatants of HepAD38 Cells
The anti-HBV activity was analysed in the stable transfected cell line HepAD38, which has been described to secrete high levels of HBV virion particles (Ladner et al., 1997). In brief, HepAD38 cells were cultured at 37° C. at 5% CO2 and 95% humidity in 200 μl maintenance medium, which was Dulbecco's modified Eagle's medium/Nutrient Mixture F-12 (Gibco, Karlsruhe), 10% fetal bovine serum (PAN Biotech Aidenbach) supplemented with 50 μg/ml penicillin/streptomycin (Gibco, Karlsruhe), 2 mM L-glutamine (PAN Biotech, Aidenbach), 400 μg/ml G418 (AppliChem, Darmstadt) and 0.3 μg/ml tetracycline. Cells were subcultured once a week in a 1:5 ratio, but were usually not passaged more than ten times. For the assay 60,000 cells were seeded in maintenance medium without any tetracycline into each well of a 96-well plate and treated with serial half-log dilutions of test compound. To minimize edge effects the outer 36 wells of the plate were not used but were filled with assay medium. On each assay plate six wells for the virus control (untreated HepAD38 cells) and six wells for the cell control (HepAD38 cells treated with 0.3 μg/ml tetracycline) were allocated, respectively. In addition, one plate set with reference inhibitors like BAY 41-4109, entecavir, and lamivudine instead of screening compounds were prepared in each experiment. In general, experiments were performed thrice in triplicates. At day 6 HBV DNA from 100 μl filtrated cell culture supernatant (AcroPrep Advance 96 Filter Plate, […] Supor membran, PALL GmbH, Dreieich) was automatically purified on the MagNa Pure LC instrument using the MagNA Pure 96 DNA and Viral NA Small Volume Kit (Roche Diagnostics, Mannheim) according to the instructions of the manufacturer. EC50 values were calculated from relative copy numbers of HBV DNA. In brief, 5 μl of the 100 μl eluate containing HBV DNA were subjected to PCR LC480 Probes Master Kit (Roche) together with 1 μM antisense primer […], 0.5 μM sense primer […], 0.3 μM hybprobes […]-FL and LC640-[…]-PH (TIBMolBiol, Berlin) to a final volume of 12.5 μl. The PCR was performed on the Light Cycler 480 real time system (Roche Diagnostics, Mannheim) using the following protocol: Pre-incubation for 1 min at 95° C., amplification: 40 cycles×(10 sec at 95° C., 50 sec at 60° C., 1 sec at 70° C.), cooling for 10 sec at 40° C. Viral load was quantitated against known standards using HBV plasmid DNA of pCH-9/3091 (Nassal et al., 1990, Cell 63: 1357-1363) and the LightCycler 480 SW 1.5 software (Roche Diagnostics, Mannheim) and EC50 values were calculated using non-linear regression with GraphPad Prism 6 (GraphPad Software Inc., La Jolla, USA).

Where [1] appears, read: 144 h, HBV DNA in HepAD38 supernatant at day 6.

HBV core protein, sequence (P03146 whole entry, looked up): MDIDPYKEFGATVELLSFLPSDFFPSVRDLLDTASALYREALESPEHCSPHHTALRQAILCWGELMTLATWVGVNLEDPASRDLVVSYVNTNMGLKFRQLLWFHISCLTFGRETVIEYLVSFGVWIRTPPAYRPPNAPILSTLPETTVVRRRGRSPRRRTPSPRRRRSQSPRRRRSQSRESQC

One may read the IC50 as the point on the concentration scale where inhibition reaches its midpoint. By EC50 is commonly meant the concentration that produces a half-maximal response. Regarding `CS(=O)(=O)NC(=O)Nc1nc2c(s1)CN(C(=O)c1cc3ccccc3[nH]1)CC2` [Example 393, 1-[5-(1H-indole-2-carbonyl)-4H,5H,6H,7H-[1,3]thiazolo[5,4-c]pyridin-2-yl]-3-methanesulfonylurea], the IC50 on HBV core protein was 5 to 10 µM. Further, the EC50 in the assay with HBV (setting [1]) was 1 to 10 µM.

Consider `O=C(Nc1nc2c(s1)CN(C(=O)c1cc3c(Cl)cccc3[nH]1)CC2)C1CCOCC1` [Example 316, N-[5-(4-chloro-1H-indole-2-carbonyl)-4H,5H,6H,7H-[1,3]thiazolo[5,4-c]pyridin-2-yl]oxane-4-carboxamide], for which the IC50 on HBV core protein is below 5 µM. Further, the EC50 with HBV (setting [1]) is below 1 µM.

With `O=C(c1cc2ccccc2[nH]1)N1CCc2nc(NCCCN3CCOCC3)sc2C1` [Example 73, 5-(1H-indole-2-carbonyl)-N-[3-(morpholin-4-yl)propyl]-4H,5H,6H,7H-[1,3]thiazolo[5,4-c]pyridin-2-amine], at HBV core protein, the IC50 was below 5 µM. Also, the EC50 in the assay with HBV (setting [1]) was below 1 µM.

As to `O=C(c1cc2ccccc2[nH]1)N1CCc2nc(NCC3CCOC3)sc2C1` (stereo not drawn) [Example 91, 5-(1H-indole-2-carbonyl)-N-[(oxolan-3-yl)methyl]-4H,5H,6H,7H-[1,3]thiazolo[5,4-c]pyridin-2-amine], the IC50 on HBV core protein is below 5 µM. The EC50 with HBV (HePAD38, 144 h) is below 1 µM.

As to `CCc1cccc2[nH]c(C(=O)N3CCc4nc(NCC5(CO)CC5)sc4C3)cc12` [Example 272, [1-({[5-(4-ethyl-1H-indole-2-carbonyl)-4H,5H,6H,7H-[1,3]thiazolo[5,4-c]pyridin-2-yl]amino}methyl)cyclopropyl]methanol], the IC50 at HBV core protein is below 5 µM. Besides, the EC50 in the assay with HBV (setting [1]) was below 1 µM.

Take `Cc1nc2c(s1)CN(C(=O)c1cc3c(C)cc(F)cc3[nH]1)CC2` [Example 190, 6-fluoro-4-methyl-2-{2-methyl-4H,5H,6H,7H-[1,3]thiazolo[5,4-c]pyridine-5-carbonyl}-1H-indole]: at HBV core protein, the IC50 is below 5 µM. Moreover, in the assay on HBV (setting [1]), the EC50 is below 1 µM.

Consider `Cc1nc2c(s1)CN(C(=O)c1cc3c(F)c(F)ccc3[nH]1)CC2` [Example 193, 4,5-difluoro-2-{2-methyl-4H,5H,6H,7H-[1,3]thiazolo[5,4-c]pyridine-5-carbonyl}-1H-indole], for which the IC50 at HBV core protein is below 5 µM. In addition, the EC50 in the assay on HBV (setting [1]) is below 1 µM.

`C#Cc1cccc2[nH]c(C(=O)N3CCc4nc(N)sc4C3)cc12` [Example 14, 5-(4-ethynyl-1H-indole-2-carbonyl)-4H,5H,6H,7H-[1,3]thiazolo[5,4-c]pyridin-2-amine]: the IC50 on HBV core protein was below 100 µM. Further, in the assay with HBV (setting [1]), the 50% effective concentration (EC50) lay in the range of 1 to 10 µM.

As to `Cc1ccc2[nH]c(C(=O)N3CCc4nc(N)sc4C3)cc2c1C` [Example 136, 5-(4,5-dimethyl-1H-indole-2-carbonyl)-4H,5H,6H,7H-[1,3]thiazolo[5,4-c]pyridin-2-amine], the IC50 at HBV core protein lay within 5 to 10 µM. In addition, the EC50 in the assay with HBV (setting [1]) is 1 to 10 µM.

On to `O=C(c1cc2ccccc2[nH]1)N1CCc2nc(NC(CO)CO)sc2C1` [Example 43, 2-{[5-(1H-indole-2-carbonyl)-4H,5H,6H,7H-[1,3]thiazolo[5,4-c]pyridin-2-yl]amino}propane-1,3-diol], for which, on HBV core protein, the 50% inhibitory concentration (IC50) was below 5 µM. The EC50 in the assay with HBV (setting [1]) was below 1 µM.

On to `Cc1nc2c(s1)CN(C(=O)c1cc3c(C)cccc3[nH]1)CC2` [Example 184, 4-methyl-2-{2-methyl-4H,5H,6H,7H-[1,3]thiazolo[5,4-c]pyridine-5-carbonyl}-1H-indole], for which the IC50 at HBV core protein was below 5 µM. The concentration giving a half-maximal response (EC50) in the assay with HBV (setting [1]) was below 1 µM.

For `Nc1nc2c(s1)CN(C(=O)c1cc3cc(F)c(Cl)cc3[nH]1)CC2` [Example 277, 5-(6-chloro-5-fluoro-1H-indole-2-carbonyl)-4H,5H,6H,7H-[1,3]thiazolo[5,4-c]pyridin-2-amine], the IC50 at HBV core protein is below 5 µM. In addition, the EC50 with HBV (setting [1]) was below 1 µM.

`O=C(c1cc2ccccc2[nH]1)N1CCc2nc(NCC3COCCO3)sc2C1` (stereo not drawn) [Example 66, N-[(1,4-dioxan-2-yl)methyl]-5-(1H-indole-2-carbonyl)-4H,5H,6H,7H-[1,3]thiazolo[5,4-c]pyridin-2-amine]: the IC50 on HBV core protein is below 5 µM. Besides, the 50% effective concentration (EC50) with HBV (setting [1]) was below 1 µM.

Turning to `CCc1cc(F)cc2[nH]c(C(=O)N3CCc4nc(NCC5CCOC5)sc4C3)cc12` (stereo not drawn) [Example 255, 5-(4-ethyl-6-fluoro-1H-indole-2-carbonyl)-N-[(oxolan-3-yl)methyl]-4H,5H,6H,7H-[1,3]thiazolo[5,4-c]pyridin-2-amine], the IC50 at HBV core protein is below 5 µM. Moreover, the EC50 in the assay on HBV (setting [1]) is below 1 µM.

Take `COc1cccc2[nH]c(C(=O)N3CCc4nc(C)sc4C3)cc12` [Example 194, 4-methoxy-2-{2-methyl-4H,5H,6H,7H-[1,3]thiazolo[5,4-c]pyridine-5-carbonyl}-1H-indole]: the IC50 at HBV core protein was below 100 µM. In addition, in the assay on HBV (setting [1]), the EC50 is below 100 µM.

Turning to `NC(=O)CNc1nc2c(s1)CN(C(=O)c1cc3ccccc3[nH]1)CC2` [Example 278, 2-{[5-(1H-indole-2-carbonyl)-4H,5H,6H,7H-[1,3]thiazolo[5,4-c]pyridin-2-yl]amino}acetamide], on HBV core protein, the IC50 is below 100 µM. In the assay on HBV (setting [1]), the EC50 lay within 1 to 10 µM.

For `Nc1nc2c(s1)CN(C(=O)c1cc3c(Cl)cc(F)cc3[nH]1)CC2` [Example 167, 5-(4-chloro-6-fluoro-1H-indole-2-carbonyl)-4H,5H,6H,7H-[1,3]thiazolo[5,4-c]pyridin-2-amine], the IC50 at HBV core protein is below 5 µM. In the assay with HBV (setting [1]), the EC50 is below 1 µM.

Turning to `O=C(c1cc2c(CO)cccc2[nH]1)N1CCc2nc(NCC3(O)CCC3)sc2C1` [Example 367, 1-[({5-[4-(hydroxymethyl)-1H-indole-2-carbonyl]-4H,5H,6H,7H-[1,3]thiazolo[5,4-c]pyridin-2-yl}amino)methyl]cyclobutan-1-ol], on HBV core protein, the IC50 is below 100 µM. Further, the EC50 with HBV (setting [1]) is below 1 µM.
